Measured values from paper PMC6934184, “Selective DNA-PKcs inhibition extends the therapeutic index of localized radiotherapy and chemotherapy” (The Journal of Clinical Investigation, 2019).

Target: T1, PRKX (Homo sapiens, UniProt P51817)
T1 construct: purchased Thermo Fisher Scientific (Life Technologies) SelectScreen
Assay: SelectScreen Z'LYTE
Type: biochemical
In short: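 Percent values come from Thermo SelectScreen profiling of NU5455, combining activity and binding assays. CSF1R was run in Z'LYTE format at Km app ATP, and CAMK1 in Adapta format with ATP listed at 10.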

T1 sequence (P51817 whole entry): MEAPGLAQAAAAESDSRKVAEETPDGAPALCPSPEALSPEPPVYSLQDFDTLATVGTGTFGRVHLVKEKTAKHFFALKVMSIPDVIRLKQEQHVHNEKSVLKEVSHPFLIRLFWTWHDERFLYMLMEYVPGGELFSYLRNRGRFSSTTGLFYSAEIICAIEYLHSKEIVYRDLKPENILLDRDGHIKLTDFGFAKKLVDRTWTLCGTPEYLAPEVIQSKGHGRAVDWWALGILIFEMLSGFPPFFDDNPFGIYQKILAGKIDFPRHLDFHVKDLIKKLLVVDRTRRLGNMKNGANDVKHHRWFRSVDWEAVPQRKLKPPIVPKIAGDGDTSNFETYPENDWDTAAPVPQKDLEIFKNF

**Q.** How did the inhibition at 1 µM turn out when `CN(C(=O)CN1CCOCC1)c1ccc2sc3c(-c4cccc5c(=O)cc(N6CC7CCC(C6)O7)oc45)cccc3c2c1` [NU5455] was run?
**A.** 12.5%
